Data taken from patent US8232101B2, “Identification of antigenic peptides from multiple myeloma cells” (Janssen Pharmaceutica N.V., priority 2009, dated 2012).

What was measured:
[1] = test system: T2 cells loaded with individual peptides; assay: 51Cr Release Assay for activity of CTL generated with peptide-loaded Drosophila aAPC; assay type: cell-based, human; conditions: for CTL Activities None: number of donors that elicited no activity over total number of donors; for CTL Activities None / CTL Activities Weak / CTL Activities Strong: T2 targets loaded with individual peptide; for CTL Activities Weak: number of donors that elicited Weak activity over total number of donors; for Induction of CTL in two normal donors: Donor 1 and Donor 2, FIG. 3 and FIG. 4; for CTL Activities Strong: number of donors that elicited Strong activity over total number of donors
Protocol: Drosophila aAPC were generated from Schneider S2 cells (S2 cells), which were originally established in 1969 from several hundred Oregon-R (wild type) Drosophila melanogaster (Oregon-R) embryos (American Type Culture Collection (ATCC) CRL-1963) according to published procedures (Schneider, J. Embryol. Exp. Morph. 1972 Vol 27, pp. 353-365), and deposited in the ATCC(CRL10974). S2 cells are grown in commercial Schneider's Drosophila medium supplemented with 10% heat-inactivated fetal bovine serum. In order to generate aAPCs, human complementary DNAs (cDNAs) for HLA-A2.1, B7.1, LFA-3, ICAM-1 and CD70, were individually inserted into the pRmHa-3 vector and S2 cells were transfected using the calcium phosphate precipitation method with a mixture of HLA-A2.1, B7.1, LFA-3, ICAM-1 and CD70 plasmid DNAs (for aAPC clone 1120) and the phshneo plasmid. (see U.S. Pat. No. 6,225,042 regarding construction and use of pRMHa plasmid vectors). The human cDNAs were prepared using standard techniques by reverse transcription-PCR using primers derived from the published sequences for HLA-A2.1 from K562 cells, B7.1 from K562 cells, LFA-3 from HL60 cells, ICAM-1 from K562 cells, and CD70 from HLA-A2.1+LCL cells. K562 cells are a human erythroleukemic cell line, HL60 cells are a promyelocytic leukemia human cell line, and HLA-A2.1+LCL cells are an Epstein-Barr virus (EBV)-transformed lymphoblastoid cell line (LCL). Stably transfected cells were selected by culturing in Schneider's medium containing geneticin. Prior to scale up of the cells, expression of the transfected genes is induced by the addition of CuSO4. The level of expression is assessed by flow cytometry using anti-HLA-A2.1, anti-B7.1, anti-LFA-3, anti-ICAM-1 and CD70 antibodies. For efficient in vitro activation of the CD8+ lymphocytes, greater than 30% of the Drosophila cells must express the HLA-A2.1 molecule. The Drosophila cells regularly express each of the molecules at levels between 70-90%. Drosophila aAPC were washed and then incubated at RT for 4 hours with 10 μM of different combinations of mixed peptides or individual peptides (See e.g. U.S. Pat. Nos. 6,225,042, 6,355,479, 6,362,001 and 6,790,662; U.S. Patent Application Publication Nos. 2009/0017000 and 2009/0004142; and International Publication No. WO2007/103009). Purified human CD8+ T cells from HLA-A2 positive donors were then incubated with peptide-loaded Drosophila APC at 37° C., 5% CO2, for 5 days. Human IL-2 (20 U/ml, R&D Systems) and IL-7 (30 U/ml, R&D Systems) were added at day 5 and the activated CD8+ T cells (CTL) were re-stimulated twice, at day 7 and day 15, with non-CD8 adherent cells in a total peripheral blood mononuclear cell (PBMC) preparation from the same donor in the presence of peptides.
A number of different CTL were generated using CD8+ T cells from different donors and different combinations of mixed peptides, including combinations that contained only one peptide. For example, 24 selected peptides were mixed or used individually to create different combinations of peptide mixtures (PM) or individual peptides (P5 and P14) and produce peptide-loaded Drosophila APC. The resulting peptide-loaded Drosophila APC were incubated with CD8+ T cells from 2 different donors (Donor 1 and Donor 2) to produce 11 different batches of CTL (Donor 1: PM1, PM2, PM3, PM4, and P14; Donor 2: PM1, PM2, PM3, PM4, P5, and P14) (Table 3).
CTL (Effector) activity was measured with a standard chromium (^51Cr) release assay, with T2 cells (Target) loaded with individual peptides and also with a number of tumor cell lines as target cells (Brunner et al., Immunology. 1968 February; 14(2):181-96). The highest Effector (E) Target (T) ratio (E/T) was 50:1, with 1:5 serial dilutions of CTL (Effector) used to produce a dose response. Before the assay, Target cells (T2 cells at 3×10^6 cells/100 ul in 1×PBS with 4% FCS) were labeled by adding 100 ul of ^51Cr (Perkin Elmer) and incubating at 37° C. for 1 hour. […]

[2] = target: T1, HLA-A2 molecules in T2 cells (Homo sapiens, UniProt P04439, D140Y/D185E/D98H/E176V/E277Q/G131W/G231S/I119V/I121R/I166T/I218V/L300P/L318F/N151K/N90K/P208A/P217A/Q86G/Q94H/R138H/R169H/T345S); assay: HLA-A2 Stabilization Assay (peptide binding, T2 cells, flow cytometry); set-up: key: Strong (S); Median (M); Weak (W); None (N)
T1 construct: HLA-A2 molecules that are synthesized in a transporter associated with antigen processing (TAP)-deficient cell line, T2; host or cells: T2 cells (TAP-deficient human cell line)
Excerpt: The assay for peptide binding to class I major histocompatibility complex (MHC/HLA-A2) molecules is based on the ability of peptides to stabilize MHC class I, HLA-A2 molecules that are synthesized in a transporter associated with antigen processing (TAP)-deficient cell line, T2 (ATCC® Number: CRL-1992). The extent of stabilization of MHC class I molecules is directly related to the binding affinity of the added peptides (Townsend et al., Cell. 1990 Jul. 27; 62(2):285-95; Andersen et al., Tissue Antigens. 1999 August; 54(2):185-90).
For the assay, T2 cells were plated in 96-well V-bottom plates, 100 ul/well RPMI media, at a density of 1×10^6 cells/ml, with final peptide concentrations of 200 uM, 20 uM, 2 uM, 200 nM, 20 nM, 2 nM, and no peptide as negative control. The cells with peptides were incubated for 18 hours at 26° C., 5% CO2. After 18 hours, the plates were transferred to 37° C., 5% CO2 and incubated for an additional 3 hours. The cells in plate were washed once with FACS buffer (PBS, 2.5% FCS, 1% NaN3) and then stained by adding 1 ul/well FITC-labeled mouse anti-human HLA-A2 antibody (BD Pharmingen, Cat. No. 551285), 1 ul/well PI, and then incubating at 4° C. for 30 minutes. After staining, cells were resuspended in 200 ul of FACS buffer and transferred from 96-well plates to racks of 96 microtubes. Samples were run on a FACScan flow cytometer and the data were analysed by using CellQuest software.
A peptide of Hepatitis B Core protein (HBC) was used as a positive control. The Hepatitis B Core peptide is a potent HLA-A2.1 epitope and consists of residue numbers 18-27 of the core sequence, amino acids […] (SEQ ID NO:73) (Zhang et al. Immunology. 2007, 121(1):105-12).

[3] = truncated versions of P3, P13, P14

Row | Substance | CTL Activities None [1] | HLA-A2 Binding [2, 3] | further results
1 | NLLPKLHVV (listed as Homo sapiens) [Peptide P9] | 2/2 |  | 
2 | KNPVLLKIL (listed as Homo sapiens) [Peptide P7] | 2/3 |  | CTL Activities Weak [1]: 1/3
3 | SLVLNL (listed as Homo sapiens) [Peptide P3-6] |  | N | 
4 | TLVDLPGMT (listed as Homo sapiens) [Peptide P13-7] |  | N | 
5 | LPGITRV (listed as Homo sapiens) [Peptide P14-4] |  | N | 
6 | LSLDSSLSSLL (listed as Homo sapiens) [Peptide P17] | 2/10 |  | Induction of CTL in two normal donors [1]: induced CTL; CTL Activities Strong [1]: 4/10; CTL Activities Weak [1]: 4/10
7 | DLPGITRV (listed as Homo sapiens) [Peptide P14-3] |  | N | 
8 | ALNEEAGRLLL (listed as Homo sapiens) [Peptide P15] | 1/9 |  | Induction of CTL in two normal donors [1]: induced CTL; CTL Activities Strong [1]: 3/9; CTL Activities Weak [1]: 5/9
9 | TLIDLPGIT (listed as Homo sapiens) [Peptide P14-7] |  | N | 
10 | LVDLPGMTKV (listed as Homo sapiens) [Peptide P13-1] |  | N | 
11 | LIDLPGITR (listed as Homo sapiens) [Peptide P14-12] |  | N | 
12 | LLNMPPAHLK (listed as Homo sapiens) [Peptide P11] |  |  | CTL Activities Strong [1]: 1/2; CTL Activities Weak [1]: 1/2
13 | TLIDLP (listed as Homo sapiens) [Peptide P14-10] |  | N | 
14 | VDLPGMTKV (listed as Homo sapiens) [Peptide P13-2] |  | N | 
15 | LIDLPGIT (listed as Homo sapiens) [Peptide P14-13] |  | N | 
16 | YLLPAIVHI (listed as Homo sapiens) [Peptide P8] | 3/3 |  | 
17 | LLIDDKGTIKL (listed as Homo sapiens) [Peptide P20] | 2/3 |  | CTL Activities Weak [1]: 1/3
18 | LLLDVPTAAVQA (listed as Homo sapiens) [Peptide P21] | 2/3 |  | CTL Activities Strong [1]: 1/3
19 | TLIDLPG (listed as Homo sapiens) [Peptide P14-9] |  | N | 
20 | LLYQGPHNTL (listed as Homo sapiens) [Peptide P12] | 2/3 |  | CTL Activities Weak [1]: 1/3
21 | TLIDLPGI (listed as Homo sapiens) [Peptide P14-8] |  | N | 
22 | TLVDLPGMTK (listed as Homo sapiens) [Peptide P13-6] |  | N | 

Row | Substance | CTL Activities None [1] | HLA-A2 Binding [2, 3] | further results
23 | LPGMTKV (listed as Homo sapiens) [Peptide P13-4] |  | N | 
24 | FMLQTYGQQL (listed as Homo sapiens) [Peptide P14-18] |  |  | HLA-A2 Binding ([2]; computer predicted peptides): N
25 | VLIPKLPQL (listed as Homo sapiens) [Peptide P5] | 2/3 |  | Induction of CTL in two normal donors [1]: induced CTL; CTL Activities Weak [1]: 1/3
26 | LLLDVAYGAVQA (listed as Homo sapiens) [Peptide P22] | 1/2 |  | CTL Activities Strong [1]: 1/2
27 | TLIDLPGITR (listed as Homo sapiens) [Peptide P14-6] |  | N | 
28 | DLPGITR (listed as Homo sapiens) [Peptide P14-17] |  | N | 
29 | TLVDLPG (listed as Homo sapiens) [Peptide P13-9] |  | N | 
30 | KLLEPVLLL (listed as Homo sapiens) [Peptide P6] | 2/3 |  | CTL Activities Weak [1]: 1/3
31 | PGITRV (listed as Homo sapiens) [Peptide P14-5] |  | N | 
32 | SLVLNLL (listed as Homo sapiens) [Peptide P3-5] |  | N | 
33 | VDLPGMT (listed as Homo sapiens) [Peptide P13-14] |  | N | 
34 | DLPGMTKV (listed as Homo sapiens) [Peptide P13-3] |  | N | 
35 | FLLPHPGLQV (listed as Homo sapiens) [Peptide P10] | 1/2 |  | Induction of CTL in two normal donors [1]: induced CTL; CTL Activities Strong [1]: 1/2
36 | LVDLPGMT (listed as Homo sapiens) [Peptide P13-11] |  | N | 
37 | PGMTKV (listed as Homo sapiens) [Peptide P13-5] |  | N | 
38 | LVLNLLEL (listed as Homo sapiens) [Peptide P3-1] |  | N | 
39 | IDLPGITRV (listed as Homo sapiens) [Peptide P14-2] |  | N | 
40 | LLGPRLVLA (listed as Homo sapiens) [Peptide P1] | 6/10 |  | Induction of CTL in two normal donors [1]: induced CTL; CTL Activities Strong [1]: 2/10; CTL Activities Weak [1]: 2/10
41 | HSLDNSLSILR (listed as Homo sapiens) [Peptide P16] | 2/2 |  | 
42 | RSLFLLYAL (listed as Homo sapiens) [Peptide P4] |  |  | CTL Activities Weak [1]: 1/1
43 | FLASESLLKGAL (listed as Homo sapiens) [Peptide P23] | 1/2 |  | Induction of CTL in two normal donors [1]: induced CTL; CTL Activities Strong [1]: 1/2
